In patent publication US20220306695A1, “COMPSTATIN ANALOGUES AND THEIR MEDICAL USES” (priority 2019, published 2022):
Positions of bridges follow the written chain, without caps; N, C: chain ends. Non-standard residues stand in square brackets, D forms with d. Residues, ends and D or L forms follow the SMILES beside them. Trp(1-Me) = Cn1cc(C[C@H](N)C(=O)O)c2ccccc21; 2Nal = N[C@@H](Cc1ccc2ccccc2c1)C(=O)O; Sar = CNCC(=O)O

How the values were obtained:
[1] = test system: classical complement pathway; test: In vitro haemolysis assay (inhibition of classical complement pathway); assay type: cell-based, human; conditions: Table 3; human serum, sensitized sheep red blood cells; read-out: IC50[nM], in vitro analysis of inhibition of hemolysis
Summary of the method: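 Serially diluted compound (9 points) was preincubated 15 min at room temperature with diluted human serum, titrated per batch to give 70-90% maximal haemolysis, in Tris/casein buffer pH 7.4 with Mg2+/Ca2+. Antibody-sensitized sheep erythrocytes were then added for 30 min at 37° C, and the reaction was stopped with EDTA. Haemolysis was read at A405, with IC50 from 4PL fit.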

[2] = Solubility test at 10 mg/mL (visual inspection and light scattering); assay type: physicochemical; conditions: for Solubility, Condition 1 Acetate pH 4: 10 mg/mL compound in 100 mM acetate pH 4; for Solubility, Condition 2 Acetate pH 5: 10 mg/mL compound in 100 mM acetate pH 5; for Solubility, Condition 3 Phosphate pH 6: 10 mg/mL compound in 100 mM phosphate pH 6; for Solubility, Condition 4 Phosphate pH 7: 10 mg/mL compound in 100 mM phosphate pH 7; for Solubility, Condition 5 Phosphate pH 7.5: 10 mg/mL compound in 100 mM phosphate pH 7.5

| Structure (SMILES) | IC50 [1] | Solubility, Condition 1 Acetate pH 4 [2] | Solubility, Condition 2 Acetate pH 5 [2] | Solubility, Condition 3 Phosphate pH 6 [2] | Solubility, Condition 4 Phosphate pH 7 [2] | Solubility, Condition 5 Phosphate pH 7.5 [2] |
| --- | --- | --- | --- | --- | --- | --- |
| CC[C@H](C)[C@H](NC(=O)[C@H](C)NC(=O)[C@H](CO)NC(=O)CNC(=O)[C@H](CCC(=O)O)NC(C)=O)C(=O)N[C@H]1CSSC[C@@H](C(=O)N(C)CC(=O)N[C@@H](CCC(=O)O)C(=O)NCC(=O)N[C@@H](CCC(=O)O)C(N)=O)NC(=O)[C@H](CCCNC(=N)N)NC(=O)[C@H](Cc2c[nH]cn2)NC(=O)[C@H](CCC(=O)O)NC(=O)CNC(=O)[C@H](Cc2c[nH]c3ccccc23)NC(=O)[C@H](CC(=O)O)NC(=O)[C@H](CCC(N)=O)NC(=O)[C@H](Cc2c[nH]c3ccccc23)NC(=O)[C@H]([C@@H](C)CC)NC1=O [Compound 44] (Ac-EGSAICIWQDWGEHRC[Sar]EGE-NH2; disulfide 6-16) | < 250 nM | − (denotes lack of solubility at the given condition, as UV absorbance at 340 nm exceeds 0.1 AU and/or it is visibly turbid or contains particles.) | − (denotes lack of solubility at the given condition, as UV absorbance at 340 nm exceeds 0.1 AU and/or it is visibly turbid or contains particles.) | + (denotes solubility at the given condition, as determined by UV absorbance being less than 0.1 AU at 340 nm and the sample being clear when manually inspected.) | + (denotes solubility at the given condition, as determined by UV absorbance being less than 0.1 AU at 340 nm and the sample being clear when manually inspected.) | + (denotes solubility at the given condition, as determined by UV absorbance being less than 0.1 AU at 340 nm and the sample being clear when manually inspected.) |
| CC[C@H](C)[C@@H]1NC(=O)[C@@H](NC(=O)[C@H](Cc2ccccc2)NC(=O)[C@H](C)NC(=O)[C@H](CO)NC(=O)CNC(=O)[C@H](CCC(=O)O)NC(C)=O)CSSC[C@@H](C(=O)N(C)CC(=O)N[C@@H](CCC(=O)O)C(N)=O)NC(=O)[C@H](CCCNC(=N)N)NC(=O)[C@H](Cc2c[nH]cn2)NC(=O)[C@H](CCC(=O)O)NC(=O)CNC(=O)[C@H](Cc2c[nH]c3ccccc23)NC(=O)[C@H](CC(=O)O)NC(=O)[C@H](CCC(N)=O)NC(=O)[C@H](Cc2c[nH]c3ccccc23)NC1=O [Compound 45] (Ac-EGSAFCIWQDWGEHRC[Sar]E-NH2; disulfide 6-16) | < 100 nM | − (denotes lack of solubility at the given condition, as UV absorbance at 340 nm exceeds 0.1 AU and/or it is visibly turbid or contains particles.) | + (denotes solubility at the given condition, as determined by UV absorbance being less than 0.1 AU at 340 nm and the sample being clear when manually inspected.) | + (denotes solubility at the given condition, as determined by UV absorbance being less than 0.1 AU at 340 nm and the sample being clear when manually inspected.) | + (denotes solubility at the given condition, as determined by UV absorbance being less than 0.1 AU at 340 nm and the sample being clear when manually inspected.) | + (denotes solubility at the given condition, as determined by UV absorbance being less than 0.1 AU at 340 nm and the sample being clear when manually inspected.) |
| CC[C@H](C)[C@H](NC(=O)[C@H](C)NC(=O)[C@H](CO)NC(=O)CNC(=O)[C@H](CCC(=O)O)NC(C)=O)C(=O)N[C@H]1CSSC[C@@H](C(=O)N(C)CC(=O)N[C@@H](CCC(=O)O)C(N)=O)NC(=O)[C@H](CCCNC(=N)N)NC(=O)[C@H](Cc2c[nH]cn2)NC(=O)[C@H](CCC(=O)O)NC(=O)CNC(=O)[C@H](Cc2c[nH]c3ccccc23)NC(=O)[C@H](CC(=O)O)NC(=O)[C@H](CCC(N)=O)NC(=O)[C@H](Cc2cn(C)c3ccccc23)NC(=O)[C@H]([C@@H](C)CC)NC1=O [Compound 49] (Ac-EGSAICI[Trp(1-Me)]QDWGEHRC[Sar]E-NH2; disulfide 6-16) | < 100 nM | − (denotes lack of solubility at the given condition, as UV absorbance at 340 nm exceeds 0.1 AU and/or it is visibly turbid or contains particles.) | − (denotes lack of solubility at the given condition, as UV absorbance at 340 nm exceeds 0.1 AU and/or it is visibly turbid or contains particles.) | + (denotes solubility at the given condition, as determined by UV absorbance being less than 0.1 AU at 340 nm and the sample being clear when manually inspected.) | + (denotes solubility at the given condition, as determined by UV absorbance being less than 0.1 AU at 340 nm and the sample being clear when manually inspected.) | + (denotes solubility at the given condition, as determined by UV absorbance being less than 0.1 AU at 340 nm and the sample being clear when manually inspected.) |
| CC[C@H](C)[C@H](NC(=O)[C@H](C)NC(=O)[C@H](CO)NC(=O)CNC(=O)[C@H](CCC(=O)O)NC(C)=O)C(=O)N[C@H]1CSSC[C@@H](C(=O)N(C)CC(=O)N[C@@H](CCC(=O)O)C(N)=O)NC(=O)[C@H](CCCNC(=N)N)NC(=O)[C@H](Cc2c[nH]cn2)NC(=O)[C@H](CCC(=O)O)NC(=O)CNC(=O)[C@H](Cc2c[nH]c3ccccc23)NC(=O)[C@H](CC(=O)O)NC(=O)[C@H](CCC(N)=O)NC(=O)[C@H](Cc2ccc3ccccc3c2)NC(=O)[C@H]([C@@H](C)CC)NC1=O [Compound 50] (Ac-EGSAICI[2Nal]QDWGEHRC[Sar]E-NH2; disulfide 6-16) | < 100 nM | − (denotes lack of solubility at the given condition, as UV absorbance at 340 nm exceeds 0.1 AU and/or it is visibly turbid or contains particles.) | − (denotes lack of solubility at the given condition, as UV absorbance at 340 nm exceeds 0.1 AU and/or it is visibly turbid or contains particles.) | + (denotes solubility at the given condition, as determined by UV absorbance being less than 0.1 AU at 340 nm and the sample being clear when manually inspected.) | + (denotes solubility at the given condition, as determined by UV absorbance being less than 0.1 AU at 340 nm and the sample being clear when manually inspected.) | + (denotes solubility at the given condition, as determined by UV absorbance being less than 0.1 AU at 340 nm and the sample being clear when manually inspected.) |
| CC[C@H](C)[C@H](NC(C)=O)C(=O)N[C@H]1CSSC[C@@H](C(=O)N[C@H](C(=O)NCC(=O)N[C@@H](C)C(=O)N[C@@H](CCC(=O)O)C(=O)N[C@@H](CO)C(N)=O)[C@@H](C)O)NC(=O)[C@H](CCCNC(=N)N)NC(=O)[C@H](Cc2c[nH]cn2)NC(=O)[C@H](CCC(=O)O)NC(=O)CNC(=O)[C@H](Cc2c[nH]c3ccccc23)NC(=O)[C@H](CC(=O)O)NC(=O)[C@H](CCC(N)=O)NC(=O)[C@H](Cc2cn(C)c3ccccc23)NC(=O)[C@H]([C@@H](C)CC)NC1=O [Compound 51] (Ac-ICI[Trp(1-Me)]QDWGEHRCTGAES-NH2; disulfide 2-12) | < 100 nM | − (denotes lack of solubility at the given condition, as UV absorbance at 340 nm exceeds 0.1 AU and/or it is visibly turbid or contains particles.) | − (denotes lack of solubility at the given condition, as UV absorbance at 340 nm exceeds 0.1 AU and/or it is visibly turbid or contains particles.) | + (denotes solubility at the given condition, as determined by UV absorbance being less than 0.1 AU at 340 nm and the sample being clear when manually inspected.) | + (denotes solubility at the given condition, as determined by UV absorbance being less than 0.1 AU at 340 nm and the sample being clear when manually inspected.) | + (denotes solubility at the given condition, as determined by UV absorbance being less than 0.1 AU at 340 nm and the sample being clear when manually inspected.) |
| CC[C@H](C)[C@H](NC(C)=O)C(=O)N[C@H]1CSSC[C@@H](C(=O)N[C@H](C(=O)NCC(=O)N[C@@H](C)C(=O)N[C@@H](CCC(=O)O)C(=O)N[C@@H](CO)C(N)=O)[C@@H](C)O)NC(=O)[C@H](CCCNC(=N)N)NC(=O)[C@H](Cc2c[nH]cn2)NC(=O)[C@H](CCC(=O)O)NC(=O)CNC(=O)[C@H](Cc2c[nH]c3ccccc23)NC(=O)[C@H](CC(=O)O)NC(=O)[C@H](CCC(N)=O)NC(=O)[C@H](Cc2ccc3ccccc3c2)NC(=O)[C@H]([C@@H](C)CC)NC1=O [Compound 52] (Ac-ICI[2Nal]QDWGEHRCTGAES-NH2; disulfide 2-12) | < 100 nM | − (denotes lack of solubility at the given condition, as UV absorbance at 340 nm exceeds 0.1 AU and/or it is visibly turbid or contains particles.) | − (denotes lack of solubility at the given condition, as UV absorbance at 340 nm exceeds 0.1 AU and/or it is visibly turbid or contains particles.) | + (denotes solubility at the given condition, as determined by UV absorbance being less than 0.1 AU at 340 nm and the sample being clear when manually inspected.) | + (denotes solubility at the given condition, as determined by UV absorbance being less than 0.1 AU at 340 nm and the sample being clear when manually inspected.) | + (denotes solubility at the given condition, as determined by UV absorbance being less than 0.1 AU at 340 nm and the sample being clear when manually inspected.) |
